# Legend:
# [1] = system: kainic acid-induced seizures; assay: Kainic acid model of acute seizures; type: in vivo, Sprague Dawley rats
# Protocol: (§1) All animal experiments were carried out in accordance with the National Institutes of Health guide for the care and use of laboratory animals (NIH publication 8023, revised 1996) and with the approval of the local Animal Use Committee. Unless indicated, all chemicals were obtained from Sigma Chemical Co (St. Louis Mo.). Male, Sprague Dawley rats weighing 50-74 g (young) or 147-309 g (adult) were used in this study. Acute seizures were induced by kainic acid (KA; Ocean Produce Int., Canada), pilocarpine or pentylenetetrazole (PTZ) as previously described (Lian et al 2006). These models were chosen because they initiate seizures by different mechanisms and the seizures have a relatively gradual onset compared to seizures initiated by stimulation. There was no difference in the body weight of the animals receiving the different convulsants. For pilocarpine, kainic acid and PTZ, the mean weights were 219±5 g (range 163-275 g), 215±7 g (range 183-258 g), and 216±13 g (range 147-309 g), respectively. The animals in the drug treatment groups were not different in weight from the animals in the control groups.
# (§2) After administration of KA (10 mg/kg, ip), pilocarpine (scopolamine methyl bromide 1 mg/kg, s.c followed 15 min later by 300 mg/kg, ip pilocarpine) or PTZ (50 mg/kg, ip) (Lian et al., 2006), animals were continuously monitored for seizure activity for at least 5 h after KA or pilocarpine and for 30 min after PTZ. Behavioral seizures were scored by an investigator blinded to the treatment. Latency to the first wet dog shake after KA, latency to the first forelimb clonus (after pilocarpine, kainic acid or PTZ) and the score and duration of seizures were measured. When at least 1 hour had passed without any head bobbing (for pilocarpine) or any wet dog shakes (for KA), seizures were considered over. Status epilepticus lasting longer than 4 hours (for KA) or 5 hours (for pilocarpine) were assigned 4 and 5 hours for seizure duration. For animals receiving PTZ, the seizure duration was defined as the period of tonic-clonic seizures. EEG recording in the hippocampus was conducted as previously described (Lian et al., 2004). After anesthesia, a recording electrode was placed in a burr hole centered at 3.0 mm posterior to bregma, 1.8 mm lateral to the midline and then lowered 3.0 mm. A ground screw and wire was placed over the frontal region in another burr hole. This assembly was fixed to the skull with dental cement.
# (§3) Each animal was assigned the score of the most severe seizure observed. The behavioral seizures induced by KA or pilocarpine were scored according to an adjusted version of the scale of Racine (Bough et al., 2002): stage 1, wet dog shakes after KA or trembling after pilocarpine; stage 2, head bobbing and stereotypes; stage 3, unilateral forelimb clonus; stage 4, bilateral forelimb clonus; stage 5, rearing and falling; stage 6, jumping and/or running followed by falling. Death within 24 h was assigned stage 7.
# (§4) Adult rats received either D-F1,6BP, sodium valproate (VPA, 0.3 g/kg), 2-DG (0.25, 0.5 g/kg) or normal saline (vehicle) intraperitoneally followed 1 h later by one of the convulsants. The dose for VPA was based on experimental evidence that doses from 0.1 to 0.4 g/kg (ip) are effective in animal models (Bough and Eagles, 2001; Manent et al., 2007). Three doses of F1,6BP (0.25, 0.5 and 1 g/kg) were tested with this dosing schedule. Two additional groups were administered F1,6BP (0.5 or 1 g/kg, n=5) after pilocarpine. In this experiment, the F1,6BP was given intraperitoneally at the first behavioral seizure, which was chewing movements of the jaw. Two additional sets of animals were fed the classic ketogenic diet (No. F3666; Bio-Serv, Frenchtown, N.J.). One set of animals was given the diet beginning on postnatal day 22-26 (KD-Yng) and maintained on this diet for 4 weeks. Thus the seizures were tested in this group when the animals had reached approximately the same age (50-54 days) as the majority of the animals tested. […]
# [2] = system: PTZ-induced generalized tonic-clonic seizures; assay: PTZ model of acute seizures; type: in vivo, Sprague Dawley rats
# Protocol: as §1, §2
# Adult rats received either D-F1,6BP, sodium valproate (VPA, 0.3 g/kg), 2-DG (0.25, 0.5 g/kg) or normal saline (vehicle) intraperitoneally followed 1 h later by one of the convulsants. The dose for VPA was based on experimental evidence that doses from 0.1 to 0.4 g/kg (ip) are effective in animal models (Bough and Eagles, 2001; Manent et al., 2007). Three doses of F1,6BP (0.25, 0.5 and 1 g/kg) were tested with this dosing schedule. Two additional groups were administered F1,6BP (0.5 or 1 g/kg, n=5) after pilocarpine. In this experiment, the F1,6BP was given intraperitoneally at the first behavioral seizure, which was chewing movements of the jaw. Two additional sets of animals were fed the classic ketogenic diet (No. F3666; Bio-Serv, Frenchtown, N.J.). One set of animals was given the diet beginning on postnatal day 22-26 (KD-Yng) and maintained on this diet for 4 weeks. Thus the seizures were tested in this group when the animals had reached approximately the same age (50-54 days) as the majority of the animals tested.
# The latency to seizure onset, seizure score and seizure duration were averaged across animals in each group. Comparisons between groups were done with an analysis of variance with Bonferroni post hoc test. Statistical difference was defined as p<0.05.
# [3] = system: pilocarpine-induced seizures; assay: Pilocarpine model of acute seizures; type: in vivo, Sprague Dawley rats
# Protocol: as §1, §2, §3, §4
# memory consolidation = conditions: subcutaneous 0.3 μmol, chick (Gibbs and Summers, 2002); cited from earlier work
# [4] = VPA 0.3 g/kg ip pretreatment, n=9
# [5] = 2-DG 0.25 and 0.5 g/kg, n=5 each
structure (smiles),measurement,setting,value
"CCCC(CCC)C(=O)[O-].[Na+] [VPA, sodium valproate, reference compound]",appearance of forelimb clonus,"[1]; VPA 0.3 g/kg ip, n=6",but not the appearance of forelimb clonus
same,appearance of wet dog shakes,"[1]; VPA 0.3 g/kg ip, n=6",significantly delayed
same,duration of seizures,"[1]; VPA 0.3 g/kg ip, n=6",decreased
same,seizure score,"[1]; VPA 0.3 g/kg ip, n=6",4.5±0.2
same,seizure duration,[2]; VPA 0.3 g/kg,9 ± 4 s
same,animals with no generalized tonic-clonic seizures,"[2]; VPA 0.3 g/kg, n=8",two animals
same,seizure latency,"[2]; VPA 0.3 g/kg, the six animals with seizures",185 ± 27 s
same,animals with forelimb clonus,[3]; VPA 0.3 g/kg ip pretreatment,6 out of 9
same,animals that died,[3]; [4],one died
same,mean seizure score,[3]; [4],significantly reduced
same,seizure duration,[3]; [4],significantly reduced
"O=CC[C@@H](O)[C@H](O)[C@H](O)CO [2-DG, 2-deoxyglucose, reference compound]",appearance of the first wet dog shake,"[1]; 2-DG 0.25 g/kg, n=6",delayed
same,effect on the other seizure parameters,"[1]; 2-DG 0.25 g/kg, n=6",no effect
same,anticonvulsant activity,"[1]; 2-DG 0.5 g/kg, n=3",no additional activity
same,effect on memory consolidation,memory consolidation,inhibit memory consolidation
same,animals that had seizures,[2]; [5],All animals
same,seizure latency,[2]; [5],not increased
same,seizure duration,[2]; 2-DG 0.25 g/kg,significantly shortened
same,animals with a stage 3 seizure,"[3]; 2-DG 0.25 g/kg, n=6",only one animal
same,seizure duration,[3]; pretreatment with 2-DG,decreasing
same,seizure score,[3]; pretreatment with 2-DG,decreasing

# Source: patent US20100197610A1, “FRUCTOSE 1, 6 BISPHOSPHATE - A NOVEL ANTICONVULSANT DRUG” (Baylor College of Medicine, priority 2007, published 2010)
